Measured values: US20240132484A1, “BROAD SPECTRUM ANTIVIRAL COMPOUNDS TARGETING THE SKI COMPLEX” (priority 2020, published 2024)
Like-named read-outs stand apart in the source and are kept apart here.

Experiments:
cells (nuclei count) = conditions: for Relative cell count to DMSO controls, Average 1 μM / Relative cell count to DMSO controls, Average 5 μM / Relative cell count to DMSO controls, Average 10 μM / Relative cell count to DMSO controls, Average 25 μM / Relative cell count to DMSO controls, Average 50 μM: toxicity data, 100=DMSO control; for Relative cell count to DMSO controls, Average (for correlation analysis): average value over the 5 tested concentrations (1 to 50 uM)
SARS2 = format: cell-based, SARS-CoV-2; conditions: for Percentage Inhibition Average 1 μM / Screening data (Relative infection to DMSO controls) Average 1 μM: SARS2, 1 μM; for Screening data (Relative infection to DMSO controls) Average 1 μM / Screening data (Relative infection to DMSO controls) Average 5 μM / Screening data (Relative infection to DMSO controls) Average 10 μM / Screening data (Relative infection to DMSO controls) Average 25 μM / Screening data (Relative infection to DMSO controls) Average 50 μM / Average (relative infection to DMSO over the 5 tested concentrations): 100=DMSO control; for Percentage Inhibition Average 5 μM / Screening data (Relative infection to DMSO controls) Average 5 μM: SARS2, 5 μM; for Percentage Inhibition Average 10 μM / Screening data (Relative infection to DMSO controls) Average 10 μM: SARS2, 10 μM; for Percentage Inhibition Average 25 μM / Screening data (Relative infection to DMSO controls) Average 25 μM: SARS2, 25 μM; for Percentage Inhibition Average 50 μM / Screening data (Relative infection to DMSO controls) Average 50 μM: SARS2, 50 μM; for Average (relative infection to DMSO over the 5 tested concentrations): SARS2, average over 1 to 50 uM

## CN1CCN(CC(O)COc2cccc(N3CCCCC3)c2CNCCc2ccccc2F)CC1 (stereo not shown) [SILCS10]
Cells (nuclei count)
  Relative cell count to DMSO controls, Average 1 μM: 131.94
  Relative cell count to DMSO controls, Average 5 μM: 141.21
  Relative cell count to DMSO controls, Average 10 μM: 131
  Relative cell count to DMSO controls, Average 25 μM: 50.46
  Relative cell count to DMSO controls, Average 50 μM: 84.08
  Relative cell count to DMSO controls, Average (for correlation analysis): 107.74
Cells (nuclei count); Average of Exp 1-3, 1 uM
  Toxicity Data, Average, Mean (relative to DMSO control): 131.94%
Cells (nuclei count); Average of Exp 1-3, 5 uM
  Toxicity Data, Average, Mean (relative to DMSO control): 141.21%
Cells (nuclei count); Average of Exp 1-3, 10 uM
  Toxicity Data, Average, Mean (relative to DMSO control): 131.00%
Cells (nuclei count); Average of Exp 1-3, 25 uM
  Toxicity Data, Average, Mean (relative to DMSO control): 50.46%
Cells (nuclei count); Average of Exp 1-3, 50 uM
  Toxicity Data, Average, Mean (relative to DMSO control): 84.08%
SARS2
  SARS2 antiviral activity: strong activity
  Percentage Inhibition Average 1 μM: 47.40%
  Screening data (Relative infection to DMSO controls) Average 1 μM: 52.60
  Percentage Inhibition Average 5 μM: 56.27%
  Screening data (Relative infection to DMSO controls) Average 5 μM: 43.73
  Percentage Inhibition Average 10 μM: 58.42%
  Screening data (Relative infection to DMSO controls) Average 10 μM: 41.58
  Percentage Inhibition Average 25 μM: 66.00%
  Screening data (Relative infection to DMSO controls) Average 25 μM: 34.00
  Percentage Inhibition Average 50 μM: 93.61%
  Screening data (Relative infection to DMSO controls) Average 50 μM: 6.39
  Average (relative infection to DMSO over the 5 tested concentrations): 35.66

## Cc1ccc(CN(CCN(C)C)Cc2ccccc2)o1 [SILCS11]
Cells (nuclei count)
  Relative cell count to DMSO controls, Average 1 μM: 111.01
  Relative cell count to DMSO controls, Average 5 μM: 106.15
  Relative cell count to DMSO controls, Average 10 μM: 120.55
  Relative cell count to DMSO controls, Average 25 μM: 105.91
  Relative cell count to DMSO controls, Average 50 μM: 80.38
  Relative cell count to DMSO controls, Average (for correlation analysis): 104.80
Cells (nuclei count); Average of Exp 1-3, 1 uM
  Toxicity Data, Average, Mean (relative to DMSO control): 111.01%
Cells (nuclei count); Average of Exp 1-3, 5 uM
  Toxicity Data, Average, Mean (relative to DMSO control): 106.15%
Cells (nuclei count); Average of Exp 1-3, 10 uM
  Toxicity Data, Average, Mean (relative to DMSO control): 120.55%
Cells (nuclei count); Average of Exp 1-3, 25 uM
  Toxicity Data, Average, Mean (relative to DMSO control): 105.91%
Cells (nuclei count); Average of Exp 1-3, 50 uM
  Toxicity Data, Average, Mean (relative to DMSO control): 80.38%
SARS2
  SARS2 antiviral activity: improved activity over SILCS1
  Percentage Inhibition Average 1 μM: 24.29%
  Screening data (Relative infection to DMSO controls) Average 1 μM: 75.71
  Percentage Inhibition Average 5 μM: 21.46%
  Screening data (Relative infection to DMSO controls) Average 5 μM: 78.54
  Percentage Inhibition Average 10 μM: 45.84%
  Screening data (Relative infection to DMSO controls) Average 10 μM: 54.16
  Percentage Inhibition Average 25 μM: 64.99%
  Screening data (Relative infection to DMSO controls) Average 25 μM: 35.01
  Percentage Inhibition Average 50 μM: 79.69%
  Screening data (Relative infection to DMSO controls) Average 50 μM: 20.31
  Average (relative infection to DMSO over the 5 tested concentrations): 52.75
